Laboratory results reported in article PMC12337281, “mTORC1-selective inhibitors rescue cellular phenotypes in TSC iPSC-derived neurons” (Frontiers in Neuroscience, 2025).

System: TSC2–/– iPSC-derived neurons
Assay: MEA weighted mean firing rate in TSC2–/– iPSC-derived neurons
Format: cell-based, human
From the text: TSC2^–/– iPSC-derived cortical neurons were differentiated in two to three replicate batches, defined as independent plating of starting material iPSCs and use of reagents to differentiate iPSCs into neurons. The NGN2-induced cortical neurons were differentiated following previously published methods ([Winden et al., 2019]; [Zhang et al., 2013]) that are also described here. To establish a line of iPSCs expressing the NGN2 vector, on differentiation day - 2, iPSCs were dissociated with Accutase (Innovative Cell Technologies #AT104) and plated as single cells at 90,000 cells/cm^2 in mTeSR-1 media supplemented with 10 μM ROCK inhibitor (Y-27631, Cayman Chemical #10005583), on Geltrex-coated 12-well plates. While iPSCs were routinely cultured with StemFlex (as noted above), the NGN2 differentiation was optimized with mTeSR-1 media, so the switch was made to this media prior to initiating differentiation. One day after re-plating as single cells, on differentiation day - 1, iPSCs were transduced with lentiviral vectors expressing NGN2 and rtTA and 8 μg/ml polybrene (Sigma-Aldrich #TR-1003-G). The lentiviral particles were produced and concentrated at the Viral Core at Boston Children’s Hospital and were added to the culture at an MOI of 5 for each vector. Both plasmids are available at Addgene with the following IDs: 52047 and 20342. […]

- IC50 (Homo sapiens, Neuron, day 23, after 2 weeks treatment until day 21, replicate batch #1): 0.015 nM
SMILES: CO[C@H]1C[C@@H]2CC[C@@H](C)[C@@](O)(O2)C(=O)C(=O)N2CCCC[C@H]2C(=O)O[C@H]([C@H](C)C[C@@H]2CC[C@@H](O)[C@H](OC)C2)CC(=O)[C@H](C)/C=C(\C)[C@@H](O)[C@@H](OC)C(=O)[C@H](C)C[C@H](C)/C=C/C=C/C=C/1C [Rapamycin, rapamycin]
- Dose at which WMFR was lowered (during the 2 weeks treatment window, vs DMSO): > 0.1 nM
